Reference: patent US7402557B2, “Combined treatment with keratinocyte growth factor and epidermal growth factor inhibitor” (priority 2000, dated 2008)

How the values were obtained:
[1] = tested on: normal keratinocytes and EGFR over-expressing tumor cells; conditions: cited from earlier work
p27^kip1/waf1 [2] = conditions: cited from earlier work
[3] = tested on: hyper-phosphorylated retinoblastoma protein (ppRB); conditions: cited from earlier work
[4] = tested on: hyperphosphorylated retinoblastoma protein (ppRB); assay: Immunoblot of hyperphosphorylated RB (ppRB) in NHEK lysates; format: cell-based, human; conditions: 24 hr
Method: (§1) The protective effect of KGF on keratinocytes was measured in two types of assays, the first to determine its protective effect on cell cycle phase distribution against a small molecule EGFR inhibitor, and the second to determine its protective effect against ppRB depletion and p27^kip1/waf1 upregulation caused by the EGFR inhibitor. The effect of KGF on cell cycle phase distribution was measured by bivariate analysis of bromodeoxyuridine incorporation and propidium iodide uptake by […] using flow cytometry. The protective effect of KGF against ppRB depletion and p27^kip1/waf1 upregulation was measured by immunoblotting of lysates from treated and control […] cells with antibodies specific for RB and p27^kip1/waf1, respectively. The methods are described in detail below.
(§2) All experiments were carried out with normal human neonatal epidermal keratinoctyes, NHEK (Clonetics, San Diego, Calif.). Cells were maintained in Keratinocyte Growth Medium, KGM-2 (Clonetics). Human recombinant KGF expressed in E. coli as a 19 kDa protein was purchased from Sigma Chemical Co. (St. Louis, Mo.).
(§3) NHEK cells were seeded in 6-well plates and grown until semi-confluent in KGM-2. […] Total protein concentration of the lysates was determined using the BCA protein assay (Pierce Chemicals, Rockford, Ill.). […]

[5] = tested on: normal human neonatal epidermal keratinoctyes, NHEK; assay: Flow cytometric measurement of cell cycle arrest (BrdU incorporation / propidium iodide); format: cell-based; conditions: for % G1 / % G2 / % S: 24 hr, NHEK; for effect on cell cycle phase distribution (in words): keratinocytes treated for 24 hours
Method: as §1, §2
NHEK cells were seeded in 60-mm dishes in KGM-2. When the cells were semiconfluent, the medium was replaced with fresh medium containing the test agents: vehicle (0.125% DMSO); vehicle+20 ng/ml KGF; vehicle+0.3 μM CP-358, 774-01+/−20 ng/ml KGF; or vehicle+1 μM CP-358, 774-01+/−20 ng/ml KGF. The cells were incubated at 37° C. in a 5% CO2, humidified atmosphere. After 24 hr, bromodeoxyuridine (BrdU) was added to the medium at a final concentration of 10 μM for 30 min. The cells were then harvested using 0.25% trypsin/1 mM EDTA and counted using a Coulter counter. Aliquots of 2×10^6 cells were collected by centrifugation at 220×g for 5 min, washed in 2 ml phosphate buffered saline (PBS) containing 2.5% fetal calf serum, resuspended in 0.2 ml PBS, and fixed by the addition of 5 ml 70% ethanol at −20° C. After a 30 min incubation on ice, the cells were collected by centrifugation at 500×g for 5 min and resuspended in 25 μl PBS. One ml of 0.2 mg/ml pepsin in 2 N HCI was added and the cells were incubated for 30 min at rm temp. Cells were collected by centrifugation at 1500×g for 5 min and washed with 1 ml 0.1 M sodium borate, pH 8.5. Cells were pelleted at 1500×g for 5 min, resuspended in 1 ml of fluorescein isothiocyanate (FITC)-conjugated anti-BrdU (Becton Dickinson, San Jose, Calif.) diluted fifty-fold in PBS containing 0.5% Tween 20 and 1% bovine serum albumin, and incubated at ambient temperature in the dark for 30 min. After a final wash with PBS with 0.5% Tween 20 and 1% BSA, the cells were resuspended in PBS containing 10 μg/ml propidium iodide and 10 μg/ml RNase, filtered through a 35 µm mesh and analyzed on a FACSCalibur flow cytometer (Becton Dickinson) equipped with an argon laser with an emission wavelength of 488 nm. FITC fluorescence data was acquired at 515-545 nm, and propidium iodide fluorescence data was acquired at […]. A minimum of 20,000 cells was analyzed per sample. Data was analyzed using CellQuest software (Becton-Dickinson) and the percent of cells in each phase (G1, S, G2) of the cell cycle was calculated.

p27^kip1/waf1 [6] = assay: Immunoblot of p27^kip1/waf1 protein level in NHEK lysates; format: cell-based, human; conditions: 24 hr
Method: as §1, §2, §3

FGFR1iiib receptor = conditions: cited from earlier work

C#Cc1cccc(Nc2ncnc3cc(OCCOC)c(OCCOC)cc23)c1 [CP-358,774, [6,7-bis(2-methoxy-ethoxy)-quinazolin-4-yl]-(3-ethynylphenyl)amine]
cell cycle arrest (accumulation of cells in G1 phase) [1]: causes cell cycle arrest | effect on cyclin-dependent kinase inhibitor p27^kip1/waf1 (p27^kip1/waf1 [2]): accumulation | effect on hyper-phosphorylated retinoblastoma protein (ppRB) [3]: causes depletion

C#Cc1cccc(Nc2ncnc3cc(OCCOC)c(OCCOC)cc23)c1.Cl [Compound A]
ppRB signal on RB immunoblot ([4]; 0.3 μM Compound A): dramatically reduced | ppRB band on RB immunoblot ([4]; 1 μM Compound A): completely abolished | % G1 ([5]; 0.3 μM Compound A): 75% | % G2 ([5]; 0.3 μM Compound A): 11% | % S ([5]; 0.3 μM Compound A): 13% | % G1 ([5]; 1 μM Compound A): 85% | % G2 ([5]; 1 μM Compound A): 10% | % S ([5]; 1 μM Compound A): 6.0% | effect on cell cycle phase distribution (in words) [5]: concentration dependent accumulation of cells in the G1 phase of the cell cycle and a corresponding decrease in the S-phase fraction | induction of p27^kip1/waf1 protein levels (p27^kip1/waf1 [6]; 0.3 μM Compound A): 3.9 fold | induction of p27^kip1/waf1 (p27^kip1/waf1 [6]; 1 μM Compound A): 5.2 fold

B1: KGF-2: keratinocyte growth factor family member, also known as FGF-10 (protein, UniProt O15520 38-208, looked up)
Fibroblast growth factor 10: QALGQDMVSPEATNSSSSSFSSPSSAGRHVRSYNHLQGDVRWRKLFSFTKYFLKIEKNGKVSGTKKENCPYSILEITSVEIGVVAVKAINSNYYLAMNKKGKLYGSKEFNNDCKLKERIEENGYNTYASFNWQHNGRQMYVALNGKGAPRRGQKTRRKNTSAHFLPMVVHS
binding to FGFR1iiib receptor (FGFR1iiib receptor): high affinity

B2: KGF: Human recombinant KGF expressed in E. coli as a 19 kDa protein, purchased from Sigma Chemical Co. (protein, UniProt P21781 32-194, looked up)
Fibroblast growth factor 7: CNDMTPEQMATNVNCSSPERHTRSYDYMEGGDIRVRRLFCRTQWYLRIDKRGKVKGTQEMKNNYNIMEIRTVAVGIVAIKGVESEFYLAMNKEGKLYAKKECNEDCNFKELILENHYNTYASAKWTHNGGEMFVALNQKGIPVRGKKTKKEQKTAHFLPMAIT
% G1 ([5]; 20 ng/ml KGF alone): 52% | % G2 ([5]; 20 ng/ml KGF alone): 13% | % S ([5]; 20 ng/ml KGF alone): 34% | effect on cell cycle phase distribution (in words) [5]: no significant effect

B3: KGF-1: keratinocyte growth factor family member, also known as FGF-7 (protein, UniProt P21781 32-194, looked up)
Fibroblast growth factor 7: B2 Fibroblast growth factor 7
binding to FGFR1iiib receptor (FGFR1iiib receptor): high affinity
